# Values of other authors in patent publication US20110305747A1, “COMBINATION OF DAPSONE WITH OTHER ANTI-ACNE AGENTS” (ALLERGAN, INC., priority 2009, published 2011).
# Experiments:
# [1] = system: CRABPII (cellular retinol-binding protein II)
# spontaneous comedones = conditions: Rhino mouse containing a high density of spontaneous comedones (Allec et al, 1997)
Compound,"mean Cmax of adapalene (0.3% adapalene gel on face, chest and back, approx. 2 mg/cm2, Day 10 of treatment, 15 of 16 patients quantifiable (LOQ=0.1 ng/mL)) [ng/mL]","Mean AUC0-24hr (0.3% adapalene gel, approx. 2 mg/cm2, Day 10, 15 of the 16 patients) [ng·h/mL]","Terminal apparent half-life, mean (0.3% adapalene gel, 15 of 16 patients) [h]","Detection in plasma 72 hours after the last application (0.3% adapalene gel, all but one subject)",Binding to CRABPII [1],Comedolytic activity (spontaneous comedones),MIC90 against P. acnes (P. acnes) [µg/mL]
COc1ccc(-c2ccc3cc(C(=O)O)ccc3c2)cc1C12CC3CC(CC(C3)C1)C2 [adapalene],0.553 ± 0.466,8.37 ± 8.46,17.2 ± 10.2,not detected,does not bind,comedolytic activity,
Nc1ccc(S(=O)(=O)c2ccc(N)cc2)cc1 [dapsone],,,,,,,8
